Source: patent US11987586B1 (TAKEDA PHARMACEUTICAL COMPANY LIMITED, priority 2022, dated 2024)

Target: T1, human OX2 receptor (Homo sapiens, UniProt O43614)
T1 construct: expressed in transfected cells
T1 sequence (O43614 1-444): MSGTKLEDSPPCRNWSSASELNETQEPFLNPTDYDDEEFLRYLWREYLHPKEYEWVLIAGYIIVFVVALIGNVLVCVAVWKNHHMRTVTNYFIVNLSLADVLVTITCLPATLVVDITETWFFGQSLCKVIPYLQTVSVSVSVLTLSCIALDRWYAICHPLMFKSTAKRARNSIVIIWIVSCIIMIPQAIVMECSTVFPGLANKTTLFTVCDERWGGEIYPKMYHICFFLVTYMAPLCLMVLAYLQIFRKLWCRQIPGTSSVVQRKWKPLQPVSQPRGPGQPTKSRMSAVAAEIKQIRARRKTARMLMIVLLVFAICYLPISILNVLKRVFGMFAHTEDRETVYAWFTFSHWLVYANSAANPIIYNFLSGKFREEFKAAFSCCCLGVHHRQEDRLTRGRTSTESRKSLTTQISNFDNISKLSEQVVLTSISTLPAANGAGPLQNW
Assay: Measurement of orexin type 2 receptor agonist activity (calcium fluorescence, Fluo-4, FDSS)
Assay type: cell-based
Conditions: 3 uM test compound; CHO cells expressing human OX2 receptor; DMSO = 0%, 10 nM orexin A (human) = 100%
Procedure, shortened: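 CHO-K1 cells stably expressing human OX2 receptor (residues 1-444) were loaded with Fluo-4 AM plus probenecid. Calcium fluorescence after compound addition was recorded for 1 min 40 s. Activity (%) was scaled between DMSO (0%) and 10 nM orexin A final (100%).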

SMILES	OX2R agonist activity (3 uM, %)
CCS(=O)(=O)NC1CN2C(=O)N(c3noc4cccc(-c5c(F)cccc5F)c34)C[C@@H]2C1C (stereo in doubt) [Example 183, N-{(6R*,7S*,7aS)-2-[4-(2,6-difluorophenyl)-1,2-benzoxazol-3-yl]-7-methyl-3-oxohexahydro-1H-pyrrolo[1,2-c]imidazol-6-yl}ethanesulfonamide]	101%
CNS(=O)(=O)N[C@@H]1Cn2c(cn(-c3noc4cc(C)nc(-c5c(F)cc(F)cc5F)c34)c2=O)C1(F)F [Example 257, N-{(6R)-7,7-difluoro-2-[6-methyl-4-(2,4,6-trifluorophenyl)[1,2]oxazolo[4,5-c]pyridin-3-yl]-3-oxo-2,5,6,7-tetrahydro-3H-pyrrolo[1,2-c]imidazol-6-yl}-N′-methylsulfuric diamide]	110%
CS(=O)(=O)N[C@@H]1Cn2c(cn(-c3noc4nc(C5CC5)cc(-c5c(F)cccc5F)c34)c2=O)C1(F)F [Example 197, N-{(6R)-2-[6-cyclopropyl-4-(2,6-difluorophenyl)[1,2]oxazolo[5,4-b]pyridin-3-yl]-7,7-difluoro-3-oxo-2,5,6,7-tetrahydro-3H-pyrrolo[1,2-c]imidazol-6-yl}methanesulfonamide]	115%
Cc1cc2onc(-n3cc4n(c3=O)CC(NS(C)(=O)=O)C(F)(F)C4)c2c(-c2c(F)cc(F)cc2F)n1 (single isomer, unassigned) [Example 289, N-{(6R*)-7,7-difluoro-2-[6-methyl-4-(2,4,6-trifluorophenyl)[1,2]oxazolo[4,5-c]pyridin-3-yl]-3-oxo-2,3,5,6,7,8-hexahydroimidazo[1,5-a]pyridin-6-yl}methanesulfonamide]	97%
CCc1cc(-c2c(F)cc(F)cc2F)c2c(-n3cc4n(c3=O)C[C@@H](NS(C)(=O)=O)C4(F)F)noc2n1 [Example 230, N-{(6R)-2-[6-ethyl-4-(2,4,6-trifluorophenyl)[1,2]oxazolo[5,4-b]pyridin-3-yl]-7,7-difluoro-3-oxo-2,5,6,7-tetrahydro-3H-pyrrolo[1,2-c]imidazol-6-yl}methanesulfonamide]	111%
CCS(=O)(=O)N[C@H]1C[C@H]2CN(c3noc4cccc(-c5c(F)cccc5C(F)(F)F)c34)C(=O)N2C1 [Example 32, N-[ (6S,7aS)-2-{4-[2-fluoro-6-(trifluoromethyl)phenyl]-1,2-benzoxazol-3-yl}-3-oxohexahydro-1H-pyrrolo[1,2-c]imidazol-6-yl] ethanesulfonamide]	94%
CCS(=O)(=O)NC1CN2C(=O)N(c3noc4cccc(-c5c(F)cccc5F)c34)C[C@@H]2C1C (stereo in doubt) [Example 158, N-{(6R*,7R*,7aS)-2-[4-(2,6-difluorophenyl)-1,2-benzoxazol-3-yl]-7-methyl-3-oxohexahydro-1H-pyrrolo[1,2-c]imidazol-6-yl}ethanesulfonamide]	103%
CCS(=O)(=O)N[C@@H]1CN2C(=O)N(c3noc4cccc(-c5c(F)cccc5F)c34)C[C@]2(C)C1 [Example 57, N-{(6S,7aS)-2-[4-(2,6-difluorophenyl)-1,2-benzoxazol-3-yl]-7a-methyl-3-oxohexahydro-1H-pyrrolo[1,2-c]imidazol-6-yl}ethanesulfonamide]	88%
CCS(=O)(=O)N[C@@H]1CN2C(=O)N(c3noc4cccc(-c5c(F)cccc5F)c34)CC[C@@H]2C1(F)F [Example 262]	114%
O=C1N(c2noc3cccc(-c4c(F)cccc4F)c23)C[C@H]2N1C[C@@H](NS(=O)(=O)C1CC1)C2(F)F [Example 89, N-{(6R,7aR)-2-[4-(2,6-difluorophenyl)-1,2-benzoxazol-3-yl]-7,7-difluoro-3-oxohexahydro-1H-pyrrolo[1,2-c]imidazol-6-yl}cyclopropanesulfonamide]	95%
Cc1cc2onc(-n3cc4n(c3=O)C[C@@H](NS(C)(=O)=O)C4(F)F)c2c(-c2c(F)cccc2F)n1 [Example 196, N-{(6R)-2-[4-(2,6-difluorophenyl)-6-methyl[1,2]oxazolo[4,5-c]pyridin-3-yl]-7,7-difluoro-3-oxo-2,5,6,7-tetrahydro-3H-pyrrolo[1,2-c]imidazol-6-yl}methanesulfonamide]	106%
CCS(=O)(=O)N[C@H]1Cc2cn(-c3nsc4nc(C)cc(-c5c(F)cccc5F)c34)c(=O)n2C1 [Example 152, N-{(6S)-2-[4-(2,6-difluorophenyl)-6-methyl[1,2]thiazolo[5,4-b]pyridin-3-yl]-3-oxo-2,5,6,7-tetrahydro-3H-pyrrolo[1,2-c]imidazol-6-yl}ethanesulfonamide]	92%
CCS(=O)(=O)NC1Cn2c(cn(-c3noc4cccc(-c5c(F)cccc5F)c34)c2=O)C1(F)F (single isomer, unassigned) [Example 5, N-{(6R*)-2-[4-(2,6-difluorophenyl)-1,2-benzoxazol-3-yl]-7,7-difluoro-3-oxo-2,5,6,7-tetrahydro-3H-pyrrolo[1,2-c]imidazol-6-yl}ethanesulfonamide]	106%

Results, then the molecule that gave them:

OX2R agonist activity (3 uM, %)	SMILES
102%	CCS(=O)(=O)N[C@@H]1CN2C(=O)N(c3noc4cc(C)c(F)c(-c5c(F)cc(F)cc5F)c34)C[C@@H]2C1(F)F [Example 162, N-{(6R,7aR)-7,7-difluoro-2-[5-fluoro-6-methyl-4-(2,4,6-trifluorophenyl)-1,2-benzoxazol-3-yl]-3-oxohexahydro-1H-pyrrolo[1,2-c]imidazol-6-yl}ethanesulfonamide]
104%	CCS(=O)(=O)N[C@@H]1CN2C(=O)N(c3noc4cc(COC)c(F)c(-c5c(F)cccc5F)c34)CC[C@@H]2C1(F)F [Example 221, N-{(4aR,6R)-2-[4-(2,6-difluorophenyl)-5-fluoro-6-(methoxymethyl)-1,2-benzoxazol-3-yl]-5,5-difluoro-1-oxooctahydropyrrolo[1,2-c]pyrimidin-6-yl}ethanesulfonamide]
103%	CS(=O)(=O)N[C@@H]1CN2C(=O)N(c3noc4cc(OC(F)F)cc(-c5c(F)cc(F)cc5F)c34)C[C@@H]2C1(F)F [Example 193, N-{(6R,7aR)-2-[6-(difluoromethoxy)-4-(2,4,6-trifluorophenyl)-1,2-benzoxazol-3-yl]-7,7-difluoro-3-oxohexahydro-1H-pyrrolo[1,2-c]imidazol-6-yl}methanesulfonamide]
99%	CCOc1cc(-c2c(F)cc(F)cc2F)c2c(N3C[C@H]4N(C[C@@H](NS(C)(=O)=O)C4(F)F)C3=O)noc2c1 [Example 160, N-{(6R,7aR)-2-[6-ethoxy-4-(2,4,6-trifluorophenyl)-1,2-benzoxazol-3-yl]-7,7-difluoro-3-oxohexahydro-1H-pyrrolo[1,2-c]imidazol-6-yl}methanesulfonamide]
105%	CCS(=O)(=O)N[C@@H]1CN2C(=O)N(c3noc4ccc(F)c(-c5c(F)cccc5F)c34)C[C@@H]2C1(F)F [Example 7, N-{(6R,7aR)-2-[4-(2,6-difluorophenyl)-5-fluoro-1,2-benzoxazol-3-yl]-7,7-difluoro-3-oxohexahydro-1H-pyrrolo[1,2-c]imidazol-6-yl}ethanesulfonamide]
103%	O=C1N(c2noc3cc(F)cc(-c4c(F)cc(F)cc4F)c23)C[C@H]2N1C[C@@H](NS(=O)(=O)CF)C2(F)F [Example 266]
106%	CS(=O)(=O)NC1Cn2c(cn(-c3noc4cc(F)cc(-c5c(F)cc(F)cc5F)c34)c2=O)CC1(F)F (single isomer, unassigned) [Example 214, N-{(6R*)-7,7-difluoro-2-[6-fluoro-4-(2,4,6-trifluorophenyl)-1,2-benzoxazol-3-yl]-3-oxo-2,3,5,6,7,8-hexahydroimidazo[1,5-a]pyridin-6-yl}methanesulfonamide]
117%	CCS(=O)(=O)N[C@@H]1CN2C(=O)N(c3noc4cc(F)c(F)c(-c5c(F)cc(F)cc5F)c34)CC[C@@H]2C1(F)F [Example 304, N-{(4aR,6R)-2-[5,6-difluoro-4-(2,4,6-trifluorophenyl)-1,2-benzoxazol-3-yl]-5,5-difluoro-1-oxooctahydropyrrolo[1,2-c]pyrimidin-6-yl}ethanesulfonamide]
96%	CCS(=O)(=O)N[C@@H]1CN2C(=O)N(c3noc4cc(C)cc(-c5c(F)cc(F)cc5F)c34)C[C@@H]2C1(F)F [Example 153, N-{(6R,7aR)-7,7-difluoro-2-[6-methyl-4-(2,4,6-trifluorophenyl)-1,2-benzoxazol-3-yl]-3-oxohexahydro-1H-pyrrolo[1,2-c]imidazol-6-yl}ethanesulfonamide]
104%	CCOc1cc(-c2c(F)cc(F)cc2F)c2c(N3CC[C@H]4N(C[C@@H](NS(C)(=O)=O)C4(F)F)C3=O)noc2c1 [Example 217, N-{(4aR,6R)-2-[6-ethoxy-4-(2,4,6-trifluorophenyl)-1,2-benzoxazol-3-yl]-5,5-difluoro-1-oxooctahydropyrrolo[1,2-c]pyrimidin-6-yl}methanesulfonamide]
105%	Cc1cc2onc(N3C[C@H]4N(C[C@@H](NS(C)(=O)=O)C4(F)F)C3=O)c2c(-c2c(F)cc(F)cc2F)c1F [Example 119, N-{(6R,7aR)-7,7-difluoro-2-[5-fluoro-6-methyl-4-(2,4,6-trifluorophenyl)-1,2-benzoxazol-3-yl]-3-oxohexahydro-1H-pyrrolo[1,2-c]imidazol-6-yl}methanesulfonamide]
